Experiments:
[1] = biological target: T1, FAAH (Rattus norvegicus, UniProt P97612); assay: FAAH inhibition in vitro, crude rat brain homogenate with [3H]anandamide; format: biochemical
T1 construct: from tissue; host or cells: liver of SHR and WKY rats treated in vivo
T1 sequence (P97612 1-579): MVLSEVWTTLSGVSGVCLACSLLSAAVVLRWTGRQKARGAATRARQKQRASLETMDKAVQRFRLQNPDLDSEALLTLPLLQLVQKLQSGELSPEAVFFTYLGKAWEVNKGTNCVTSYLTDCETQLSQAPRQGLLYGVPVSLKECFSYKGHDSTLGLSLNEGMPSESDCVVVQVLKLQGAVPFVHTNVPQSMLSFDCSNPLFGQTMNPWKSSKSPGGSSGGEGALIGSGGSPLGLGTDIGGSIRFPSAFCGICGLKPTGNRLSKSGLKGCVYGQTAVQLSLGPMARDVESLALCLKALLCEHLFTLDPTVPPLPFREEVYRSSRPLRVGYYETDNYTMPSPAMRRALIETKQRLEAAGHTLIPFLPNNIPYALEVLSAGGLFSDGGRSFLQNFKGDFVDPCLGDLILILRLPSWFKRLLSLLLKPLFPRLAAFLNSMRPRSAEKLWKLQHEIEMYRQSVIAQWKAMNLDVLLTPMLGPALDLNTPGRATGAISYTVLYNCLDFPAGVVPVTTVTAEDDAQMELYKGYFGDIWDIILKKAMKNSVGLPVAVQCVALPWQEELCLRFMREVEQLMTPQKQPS
Method: This example describes a general method for assaying FAAH inhibition by the disclosed compounds and determining their IC50 values in vitro (Deutsch, D. G. and S. A. Chin, Biochem. Pharmacol. 46:791-796 (1993)). The indicated amount of each compound was preincubated in a buffer consisting of 300 μg of crude rat brain homogenate protein, 500 μg/ml fatty acid-free bovine serum albumin, in phosphate-buffered saline in a final volume of 1.0 ml, for 10 minutes at 37° C. Crude rat brain homogenate was obtained by decapitating female adult Sprague-Dawley rats, dissecting the desired tissue and homogenizing in five volumes of ice-cold TE (10 mM Tris-HCl, 1 mM EDTA, pH 7.6). Substrate ([…] anandamide+0.2 µCi of 221 Ci/mmol [^3H]anandamide ([arachidonyl-5,6,8,9,11,12,14,15-^3H]ethanolamide)) was then added and the samples incubated for 10 minutes. The reaction was quenched by the addition of chloroform:methanol (1:1) and enzyme activity was analyzed by TLC.

[2] = biological target: CB2 cannabinoid receptor (Homo sapiens, UniProt P34972); assay: Affinity for the CB2 cannabinoid receptor; format: binding
CB2 cannabinoid receptor, sequence (P34972 whole entry): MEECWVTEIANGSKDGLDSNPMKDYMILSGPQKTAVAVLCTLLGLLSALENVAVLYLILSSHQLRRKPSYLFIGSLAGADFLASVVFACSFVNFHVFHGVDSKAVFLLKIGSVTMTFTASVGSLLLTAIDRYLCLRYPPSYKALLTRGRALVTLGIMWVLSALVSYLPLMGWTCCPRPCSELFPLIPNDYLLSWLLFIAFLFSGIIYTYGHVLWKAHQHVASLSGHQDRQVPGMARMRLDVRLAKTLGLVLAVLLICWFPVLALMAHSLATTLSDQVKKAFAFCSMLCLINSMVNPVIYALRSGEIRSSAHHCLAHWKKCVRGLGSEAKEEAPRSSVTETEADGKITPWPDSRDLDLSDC

[3] = test system: conscious SHR; assay: Blood pressure and heart rate in conscious SHR; format: in vivo, rat; details: versus dosage
[4] = test system: male DIO mice (wild-type C57Bl6/J on high-fat diet); assay: Intraperitoneal glucose tolerance test in wild-type mice with diet-induced obesity; format: in vivo; details: AM3506 1 mg/kg i.p., 60 min before glucose 1.5 g/kg i.p., 1 mg/kg
Method: Male C57Bl6/J mice, wild-type or liver-specific CB1 receptor knockout, were kept on a diet containing 60% of calories as fat (Research Diets Inc) for 14 weeks, by which time both strains have become fat due to increased adipose mass. […] Sixty minutes later the mice received 1.5 g/kg glucose i.p. and blood glucose levels were monitored for 2 hours.

## O=S(=O)(F)CCCCCc1ccc(O)cc1 [AM3506]
[1]
  Ki: 31 nM
[2]
  Ki: 5.77 µM
[3]; n=4, FIG. 4A
  MBP: decrease MBP
[3]; n=4, FIG. 5A
  heart rate: moderate bradycardia only at 1 mg/kg dose
[4]
  glucose intolerance: had no such effect
